Results taken from the NIST ThermoML archive (doi:10.1021/je049605r).
Numbers after ± are expanded uncertainties.

Tests used:
[1] = refractive index (Na D-line) (dimensionless); details: 293.2 K; 101.33 kPa; Liquid; Standard Abbe refractometry
[2] = 293.2 K; 101.33 kPa; Liquid

Compound | refractive index [1] | mass density [2] [kg/m3]
Clc1ccccc1 [chlorobenzene] | 1.5244 ± 0.0007 | 1106.2 ± 0.4
C1CCCCC1 [cyclohexane] | 1.4269 ± 0.0007 | 779.3 ± 0.6
CC(=O)OC1CCCCC1 [cyclohexyl ethanoate] | 1.441 ± 0.0007 | 970.3 ± 0.3
O [water] | 1.3326 ± 0.0007 | –

Results, then the molecule that gave them:

refractive index [1] | mass density [2] [kg/m3] | Compound
1.4525 ± 0.0007 | 1055.1 ± 0.6 | OCC1CCCO1 (stereo unspecified) [2-tetrahydrofurylmethanol]
1.4648 ± 0.0007 | 963.5 ± 9.6 | OC1CCCCC1 [cyclohexanol]
